Three molecules from patent publication US20260055089A1, “NOVEL SUBSTITUTED BENZOTHIOPHENE-6-CARBOXYLIC ACID DERIVATIVES, PROCESSES FOR THEIR PREPARATION AND THERAPEUTIC USES THEREOF” (SANOFI, priority 2022, published 2026) can be followed below.

The target of the assay is T1, ERα (Homo sapiens, UniProt P03372).
T1 construct: host or cells: MCF7
T1 sequence (P03372 1-595): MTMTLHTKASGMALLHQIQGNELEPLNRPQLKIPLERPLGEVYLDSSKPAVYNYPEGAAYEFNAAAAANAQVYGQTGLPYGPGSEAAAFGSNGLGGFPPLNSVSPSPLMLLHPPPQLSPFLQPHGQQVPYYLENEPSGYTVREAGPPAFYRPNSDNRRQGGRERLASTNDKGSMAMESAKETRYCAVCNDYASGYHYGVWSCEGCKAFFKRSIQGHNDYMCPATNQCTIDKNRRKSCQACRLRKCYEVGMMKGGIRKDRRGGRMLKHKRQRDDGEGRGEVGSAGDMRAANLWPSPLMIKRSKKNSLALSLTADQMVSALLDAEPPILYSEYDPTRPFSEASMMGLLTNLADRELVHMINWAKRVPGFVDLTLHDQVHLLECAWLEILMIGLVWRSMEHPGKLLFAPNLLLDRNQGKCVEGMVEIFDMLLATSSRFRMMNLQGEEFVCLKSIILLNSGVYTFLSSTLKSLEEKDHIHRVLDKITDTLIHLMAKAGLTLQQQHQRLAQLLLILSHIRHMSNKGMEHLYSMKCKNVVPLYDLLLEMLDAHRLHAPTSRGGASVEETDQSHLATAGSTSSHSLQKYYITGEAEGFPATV
As to the kind of experiment: Estrogen receptor degradation activity: breast cancer cell ERα in cell western assay. The class given is cell-based. The following applies: MCF7 cells; for % Degradation At 0.3 μM: 4 hours, relative to fulvestrant 0.1 μM positive control; for DC50: 4 hours post compound addition, concentration which degrades 50% of the estrogen receptor, read-out: Degradation IC50. The method, then:
Test: Estrogen Receptor Degradation Activity
Said test involves measuring the in vitro degradation activity of the compounds of the table 1.
The measurements of the degradation activities were made using a breast cancer cell ERα in cell western assay as described hereunder.
MCF7 cells (ATCC) were seeded in 384 wells microplate (collagen coated) at a concentration of 10000 cells/30 μL per well in red phenol free MEM alpha medium (invitrogen) containing 5% charcoal dextran striped FBS. The following day, 9 points serial 1:5 dilution of each compound was added to the cells in 2.5 μL at final concentrations ranging from 0.3-0.0000018 μM (in table 2), or 0.1 μM for fulvestrant (using as positive control). At 4 hours post compound addition the cells were fixed by adding 25 μL of formalin (final concentration 5% formalin containing 0.1% triton) for 10 minutes at RT and then washed twice with PBS. Then, 50 μL of LI-COR blocking buffer containing 0.1% Triton was added to plate for 30 minutes at RT. LI-COR blocking buffer was removed and cells were incubated overnight at cold room with 50 μL anti-ER rabbit monoclonal antibody (Thermo scientific MA1-39540) diluted at 1:1000 in LI-COR blocking buffer containing 0.1% tween-20. Wells which were treated with blocking buffer but no antibody were used as background control. Wells were washed twice with PBS (0.1% tween-20) and incubated at 37° C. for 60 minutes in LI-COR (0.1% tween-20) containing goat anti-rabbit antibody Alexa 488 (1:1000) and Syto-64 a DNA dye (2 μM final concentration). Cells were then washed 3 times in PBS and scanned in ACUMEN explorer (TTP-Labtech). Integrated intensities in the green fluorescence and red fluorescence were measured to determine the levels of ERα and DNA respectively.
The degradation activity with respect to estrogen receptors in this test is given by the concentration which degrades 50% of the estrogen receptor (or ICso) in nM.
The % of ERα levels decrease were determined as follows: % inhibition=100*(1−(sample−fulvestrant:DMSO−fulvestrant)).

Take `CC(F)(F)c1cc(F)ccc1-c1sc2cc(C(=O)O)ccc2c1Oc1ccc(NC2CN(CCCF)C2)cc1.Cl` [Compound 1, 2-(2-(1,1-difluoroethyl)-4-fluorophenyl)-3-(4-((1-(3-fluoropropyl)azetidin-3-yl)amino)phenoxy)benzo[b]thiophene-6-carboxylic acid, hydrochloride]: the “% Degradation At 0.3 μM” value came to 92% and the DC50 is 2 nM.

With `CC(F)(F)c1cc(F)ccc1-c1sc2cc(C(=O)O)ccc2c1Oc1ccc(OC2CN(CCCF)C2)cc1` [Compound 2, 2-(2-(1,1-difluoroethyl)-4-fluorophenyl)-3-(4-((1-(3-fluoropropyl)azetidin-3-yl)oxy)phenoxy)benzo[b]thiophene-6-carboxylic acid], the “% Degradation At 0.3 μM” value amounted to 93% and the DC50 was 0.9 nM.

For `CC(F)(F)c1cc(F)ccc1-c1sc2cc(C(=O)O)ccc2c1Oc1ccc(O[C@H]2CCN(CCCF)C2)cc1` [Compound 3, (S)-2-(2-(1,1-difluoroethyl)-4-fluorophenyl)-3-(4-((1-(3-fluoropropyl)pyrrolidin-3-yl)oxy)phenoxy)benzo[b]thiophene-6-carboxylic acid], the “% Degradation At 0.3 μM” value was 85% and the DC50 turned out to be 5 nM.
